What was measured:
H526 cells = assay: Growth inhibition and isobologram/combination index, H526; assay type: cell-based, human; settings: for IC50: H526, 5 days, alone; for effect of combination with 30C10-PBD: H526 cells
Procedure: (§1) Two SCLC cell lines H526 and H1048, which expresses ˜2,500 copies of TMEFF1 on the cell surface per cell, were seeded onto 96 well plates at 2,000 cells/well on the day of treatment. To distinguish synergy from additivity of the combination of 30C10-PBD with niraparib (selleckchem, Cat # S2741), etoposide (Cell Signaling Technology, Cat #2200S) or cisplatin (Sigma, Cat # P4394), for each combination, a specific isobologram was constructed and the combination-index was calculated as described by Chou, TC and Talalay P (Quanttative analysis of dose-effect relationships: the combined effects of multiple drugs or enzyme inhibitors, Adv Enzyme Regul, 1984). IC50 value was defined as the drug concentration reducing by 50% the growth of treated cells compared with control. IC50 values of each drug was determined by plating H526 or H1048 cells and adding 30C10-PBD, niraparib, etoposide or cisplatin at 10-fold dilutions spanning their probable range of activity. Concentrations ranging from 0.0001-1 ug/ml were used for 30C10-PBD, from 0.01 to 100 uM for Niraparib, from 0.001-10 uM for etoposide and from 0.01-100 uM for cisplatin. Cell viability was measured 5 days later by CellTiter Glo® Luminescent Cell viability Assay™ (Promega, Madison, Wis.) according to manufacturer's instructions. Each IC50 was graphically derived from the growth curve graphed by Prism™ showing percent survival vs log drug concentrations.
(§2) Combination-index (CI) was defined as follows: CI=[C]A50/IC50A+[C]B50/IC50B, where [C]A50 and [C]B50 are the concentrations in combination inducing the IC50 effect. A CI of less than, equal to, or more than 1 indicates, respectively, synergy, additivity, or antagonism.
(§3) The 50% growth-inhibitory activity of the drug combinations was measured after 5 days of treatment. The line of additivity for the isobologram was constructed by interpolating the two points corresponding to the IC50 of the two drugs alone. Graphically, synergy, additivity, and antagonism are indicated by a point plotted below, on, or above the line of additivity, respectively.

H1048 cells = assay: Growth inhibition and isobologram/combination index, H1048; assay type: cell-based, human; settings: for IC50: H1048, 5 days, alone; for effect of combination with 30C10-PBD: H1048 cells
Procedure: as §1, §2, §3

[1] = H526, combination with 30C10-PBD 0.3 ng/ml
[2] = H526, combination with 30C10-PBD 0.6 ng/ml
[3] = H1048, combination with 30C10-PBD 0.1 ng/ml
[4] = H1048, combination with 30C10-PBD 0.3 ng/ml

Structure (SMILES) | IC50 (H526 cells) [nM] | CI (H526 cells; [1]) | effect (H526 cells; [1]) | CI (H526 cells; [2]) | effect (H526 cells; [2]) | effect of combination with 30C10-PBD (H526 cells) | IC50 (H1048 cells) [nM] | CI (H1048 cells; [3]) | effect (H1048 cells; [3]) | CI (H1048 cells; [4]) | effect (H1048 cells; [4]) | effect of combination with 30C10-PBD (H1048 cells) | effect (H1048 cells; H1048, combination with 30C10-PBD 0.1 ng/ml, listed as etoposide) | effect (H1048 cells; H1048, combination with 30C10-PBD 0.3 ng/ml, listed as etoposide) | IC50 (H526 cells; Homo sapiens, NCI-H526, 120 h) [nM] | IC50 (H1048 cells; Homo sapiens, NCI-H1048, 120 h) [nM]
N.N.[Cl][Pt][Cl] [Cisplatin, cisplatin] | 240 | 0.865 | synergy (A CI of less than, equal to, or more than 1 indicates, respectively, synergy, additivity, or antagonism) | 0.703 | synergy (A CI of less than, equal to, or more than 1 indicates, respectively, synergy, additivity, or antagonism) | synergistic effects | 620 | 0.985 | additive | 1.008 | additive | additive effects | – | – | – | –
COc1cc([C@@H]2c3cc4c(cc3[C@@H](O[C@@H]3O[C@@H]5CO[C@@H](C)O[C@H]5[C@H](O)[C@H]3O)[C@H]3COC(=O)[C@H]23)OCO4)cc(OC)c1O [Etoposide, etoposide] | 330 | 0.847 | synergy (A CI of less than, equal to, or more than 1 indicates, respectively, synergy, additivity, or antagonism) | 0.801 | synergy (A CI of less than, equal to, or more than 1 indicates, respectively, synergy, additivity, or antagonism) | synergistic effect | 160 | 0.932 | synergy (A CI of less than, equal to, or more than 1 indicates, respectively, synergy, additivity, or antagonism) | 0.998 | additive | – | synergistic effect | additive effect | – | –
NC(=O)c1cccc2cn(-c3ccc([C@@H]4CCCNC4)cc3)nc12 [Niraparib, niraparib] | – | 0.762 | synergy (A CI of less than, equal to, or more than 1 indicates, respectively, synergy, additivity, or antagonism) | 0.619 | synergy (A CI of less than, equal to, or more than 1 indicates, respectively, synergy, additivity, or antagonism) | Synergistic effect | – | 0.949 | synergy (A CI of less than, equal to, or more than 1 indicates, respectively, synergy, additivity, or antagonism) | 0.888 | synergy (A CI of less than, equal to, or more than 1 indicates, respectively, synergy, additivity, or antagonism) | Synergistic effect | – | – | 3240 | 1070

— patent US11312769B2, “Anti-TMEFF1 antibodies and antibody drug conjugates” (Bluefin BioMedicine, Inc., priority 2017, dated 2022)
